Values of other authors in publication PMC9074375 (The journal of physical chemistry. B, 2022).

Tested on: malignant cells

## FLGVLALLGYLAVRPFLPKKKQQK [NAF-1^44-67]
Malignant versus normal cells
  permeation of the plasma membrane: selectively permeates the plasma membrane of malignant but not normal cells
Peptide alone, without therapeutic cargo
  killing of cancer cells: kill cancer cells by itself, without carrying additional therapeutic cargo and without damaging normal cells
